The record followed here is PubChem BioAssay AID687031 (Broad Institute, 2013).

The subject of this test is BHK-21 DENV2 CPE protection, ATP luminescence, 5 d. As to the kind of experiment: Dengue virus 2 cytopathic effect protection, dose response, BHK-21 cells, ATP luminescence, cherry-pick (AID 687031). For orientation: Cytopathic effects are the visible damage that an infection or toxin causes in cultured cells.

The structures appear in SMILES notation.

Take `C[C@@H]1CCCCO[C@H](CN(C)S(=O)(=O)c2ccccc2)[C@@H](C)CN([C@@H](C)CO)C(=O)c2cc(NC(=O)c3ccncc3)ccc2O1`: the AC30 was 17.6 µM. In the case of `Cc1ccccc1S(=O)(=O)N1CC[C@@H]2[C@H](CO)Nc3ccc(-c4cccc(C#N)c4)cc3[C@@H]21`, the AC30 was 15.9 µM.

For `CC1CCCC(NC(=O)COC(=O)c2ccccc2Sc2ccccc2C#N)C1C` (centres undefined), the AC30 is 12.7 µM. Turning to `CCN(CC)CC(=O)N1CCCC(N2CCN(c3cccc(C(F)(F)F)c3)CC2)C1` (centres undefined), the AC30 is 19.1 µM. On to `Cc1ccc(C(=O)NCC(=O)NCC(c2cccs2)N2CCOCC2)cc1C` (centres undefined), for which the AC30 is 14.8 µM. The figure for `Cc1cccc([C@@H]2[C@@H]3C(=O)N(C)C(=O)[C@@H]3[C@@H]3C(=O)Nc4ccccc4C(=O)N23)c1` is 18.7 µM; for `CCOC(=O)N1CCN(C(C(=O)NC2CCCC2)C(C)C)CC1` (centres undefined) it is 9.37 µM. Turning to `Cc1noc(C)c1NC(=O)Nc1ccc2c(c1)C(=O)N([C@@H](C)CO)C[C@@H](C)[C@@H](CN(C)S(C)(=O)=O)OCCCC[C@@H](C)O2`, the AC30 is 18.6 µM. In the case of `COC(=O)N1CCCCC1c1cc(C(=O)Nc2ccc(OC)cc2C)no1` (centres undefined), the AC30 is 13 µM. With `COC(=O)[C@@H]1[C@@H](CO)[C@@H]2Cn3c(ccc(C4=CCCC4)c3=O)[C@H]1N2Cc1ccccn1`, the AC30 was 17.2 µM. Turning to `CCCNC(=O)C[C@H]1CC[C@@H]2[C@H](COC[C@@H](O)CN2C(=O)c2ccccn2)O1`, the AC30 was 17.3 µM. On to `Nc1ncccc1C(=O)OCC(=O)N1CCN(S(=O)(=O)c2ccc(Cl)cc2)CC1`, for which the AC30 is 19 µM. For `CCOc1ccc2[nH]cc(S(=O)(=O)c3ccc(C)cc3)c(=O)c2c1`, the AC30 was 13 µM. For `Cc1cc(C)cc(NC(=O)Cn2nnc(C(=O)NCc3cccs3)c2N)c1`, the AC30 was 13.3 µM. The figure for `CC1CCN(C(=O)COC(=O)CNC(=O)c2ccccc2F)CC1` is 19.4 µM. As for `Cc1cc(OC(C)C(=O)NC2CC(C)(C)NC(C)(C)C2)c2c(C)c(C)c(=O)oc2c1` (centres undefined), the AC30 was 2.89 µM. For the molecule `Cc1c(C(=O)OC(C)C)sc(N)c1C(=O)OC(C)C`, the AC30 is 18.6 µM. For `C[C@H](NC(=O)CCCOc1ccc(Cl)cc1Cl)c1nnc2ccccn12`, the AC30 is 16.2 µM. As to `OC(CSc1nnnn1-c1ccccc1)Cn1c2ccccc2c2ccccc21` (centres undefined), the AC30 was 18.8 µM.

`CC1CCCN(C(=O)c2ccc(S(=O)(=O)Nc3ccccc3Cl)cc2)C1` (centres undefined): the AC30 is 13.5 µM.

Turning to `CN(C)CC(=O)Nc1ccc2c(c1)[C@@H]1C[C@@H](CC(=O)NC3CCCCC3)O[C@H](CO)[C@@H]1O2`, the AC30 was 8.06 µM. Regarding `CC1CCN(CCOc2ccc(OCc3ccccc3)cc2)CC1`, the AC30 was 11.3 µM. Regarding `c1ccc(C2CC2)c(OCC2=NCCN2)c1`, the AC30 was 9.54 µM. With `O=C1[C@@H](Oc2ccccc2)[C@@H](c2ccncc2)N1c1ccccc1` the figure was 14.2 µM. The figure for `FC(F)(F)c1cccnc1Oc1ccc(C2=NCCS2)cc1` is 8.01 µM; for `O=C(O)C1C2C=CC(C2)C1C(=O)NCc1ccccc1` (centres undefined) it is 15.5 µM; for `Cc1cc(F)ccc1C(O)c1ncc(-c2ccccc2C(F)(F)F)[nH]1` (centres undefined) it is 18.4 µM.

With `O=C(c1ccccc1)N1CC[C@@H]2[C@H](CO)Nc3ccc(C#Cc4cccc(F)c4)cc3[C@@H]21`, the AC30 is 3.21 µM. As to `COCCNC(=O)CCC1CCN(C/C=C/c2ccccc2OC)CC1`, the AC30 is 19.3 µM. With `Cn1cnc(S(=O)(=O)N[C@@H]2C=C[C@H](CC(=O)N3CCN(c4ccccc4)CC3)O[C@@H]2CO)c1` the figure was 17 µM; with `C[C@H](CO)N1C[C@H](C)[C@H](CN(C)C(=O)Nc2ccc(-c3ccccc3)cc2)OCc2ccccc2-c2c(n(C)c3ccccc23)C1=O`, 17.7 µM. As to `C[C@H](NC(=O)[C@H]1N[C@H]2c3ccc(-c4cccnc4)c(=O)n3C[C@H]2[C@@H]1CO)c1ccccc1`, the AC30 is 12.5 µM. With `NC(=O)c1ccsc1NC(=O)COC(=O)[C@@H]1CCCN1C(=O)c1cccs1` the figure was 11 µM; with `O=C(C1CCOCC1)N1C[C@H]2[C@@H](c3ccccc31)[C@@H](CO)N2C(=O)c1ccccc1`, 18.8 µM; with `COc1ccc(CN2CCNC(=O)C2CC(=O)NCC2CCOCC2)c(C)c1C` (centres undefined), 15.7 µM. With `CSc1ccccc1OCc1cc(C(=O)N2CCc3[nH]cnc3C2c2ccccn2)no1` (centres undefined), the AC30 was 9.97 µM. Consider `CCC[C@@H]1CCCO[C@@](C(=O)NCc2ccccn2)(C(F)(F)F)C1`, for which the AC30 is 10 µM. As to `CCN(CC(=O)NCC(=O)Nc1cccc(C)c1C)Cc1ccccc1`, the AC30 was 19.3 µM. In the case of `CS(=O)(=O)N1C[C@@H]2N[C@H](C1)[C@@H]2c1ccc(-c2ccccc2)cc1`, the AC30 was 5.51 µM. For the molecule `O=S(=O)(c1ccc2c(c1)OCCO2)N1CCCN(S(=O)(=O)c2c(F)cccc2F)CC1`, the AC30 was 17.5 µM. The figure for `Oc1cccc2nc3ccccc3nc12` is 14.4 µM; for `Cc1cc(F)cc(-c2cc(C(=O)NCC3CCCCC3)[nH]n2)c1` it is 10 µM. For `COC(=O)[C@H]1CN(C(=O)c2ccccc2)C(=O)N1`, the AC30 is 5.13 µM.

`CCc1c(C2(O)CCCCC2)[nH]c2c(C(=O)OC)cc(Cl)cc12`: the AC30 was 12.3 µM.

With `CC(=O)N1CCN(C(=O)COC(=O)COc2c(C)cc(C)cc2C)CC1`, the AC30 is 11.7 µM. With `COc1ccc(C(N)c2csc(Nc3cc(Oc4ccccc4)ncn3)n2)cc1` (centres undefined), the AC30 is 17.4 µM. Consider `COc1cccc(-c2ccc(C3[C@@H]4CN(S(=O)(=O)c5cn(C)cn5)C[C@H]3N4)cc2)c1` (some centres undefined), for which the AC30 was 7.87 µM.

For the molecule `CCNS(=O)(=O)c1ccc(Br)c(C(=O)OC(C)C(=O)NCC2CCCCC2)c1` (centres undefined), the AC30 was 2.25 µM. Regarding `CC(C)[C@H](NC(=O)N1C[C@H]2C[C@@H](C1)c1cccc(=O)n1C2)C(=O)Nc1ccccc1F`, the AC30 was 16.2 µM.
